The assay relates to MV-4-11 cells. As to the kind of experiment: Gene expression microarray analysis (Affymetrix PrimeView) and GSEA. Type of assay: cell-based, human. The arrangement: RFU PODN (11730768_x_at) / Fold change /veh PODN (11730768_x_at) / RFU LINC00158 (11744669_a_at) / Fold change /veh LINC00158 (11744669_a_at) / RFU DUSP10 (11751237_a_at) / Fold change /veh DUSP10 (11751237_a_at) / RFU ID3 (11757404_x_at) / Fold change /veh ID3 (11757404_x_at) / RFU PLEKHG5 (11737974_s_at) / Fold change /veh PLEKHG5 (11737974_s_at) / RFU LRRC4B (11730491_at) / Fold change /veh LRRC4B (11730491_at) / RFU GIMAP4 (11747438_a_at) / Fold change /veh GIMAP4 (11747438_a_at) / RFU KRT8 (11758183_x_at) / Fold change /veh KRT8 (11758183_x_at) / RFU CNN1 (11734310_a_at) / Fold change /veh CNN1 (11734310_a_at) / RFU VPS37D (11726825_at) / Fold change /veh VPS37D (11726825_at) / RFU C10orf10 (11716522_x_at) / Fold change /veh C10orf10 (11716522_x_at) / RFU KIR2DL2 /// KIR2DL4 /// KIR2DL5A /// KIR2DL5B /// KIR2DS1 /// KIR2DS2 /// KIR2DS3 /// KIR2DS4 /// KIR3DL3 /// KIR3DL3 /// KIR3DS1 (11738374_at) / Fold change /veh KIR2DL2 /// KIR2DL4 /// KIR2DL5A /// KIR2DL5B /// KIR2DS1 /// KIR2DS2 /// KIR2DS3 /// KIR2DS4 /// KIR3DL3 /// KIR3DL3 /// KIR3DS1 (11738374_at) / RFU C1QL1 (11718748_at) / Fold change /veh C1QL1 (11718748_at) / RFU TMPRSS4 (11747572_a_at) / Fold change /veh TMPRSS4 (11747572_a_at) / RFU HAMP (11756126_x_at) / Fold change /veh HAMP (11756126_x_at) / RFU RNFT2 (11725882_a_at) / Fold change /veh RNFT2 (11725882_a_at) / RFU NR4A2 (11747474_a_at) / Fold change /veh NR4A2 (11747474_a_at) / RFU ABCC12 (11746883_a_at) / Fold change /veh ABCC12 (11746883_a_at) / RFU TMEM136 (11760407_x_at) / Fold change /veh TMEM136 (11760407_x_at) / RFU CLDN22 /// WWC2 (11732394_at) / Fold change /veh CLDN22 /// WWC2 (11732394_at) / RFU HLA-DPB1 (11760878_x_at) / Fold change /veh HLA-DPB1 (11760878_x_at) / RFU SPINT1 (11716480_a_at) / Fold change /veh SPINT1 (11716480_a_at) / RFU GAP43 (11754022_s_at) / Fold change /veh GAP43 (11754022_s_at) / RFU A4GNT (11735810_at) / Fold change /veh A4GNT (11735810_at) / RFU PRB3 (11715151_x_at) / Fold change /veh PRB3 (11715151_x_at) / RFU TUBB4B (11761932_at) / Fold change /veh TUBB4B (11761932_at) / RFU CAPN14 (11732068_a_at) / Fold change /veh CAPN14 (11732068_a_at) / RFU TMCC2 (11721928_a_at) / Fold change /veh TMCC2 (11721928_a_at) / RFU IRGQ (11745062_a_at) / Fold change /veh IRGQ (11745062_a_at) / RFU FAM174B (11720279_a_at) / Fold change /veh FAM174B (11720279_a_at) / RFU TMPRSS4 (11748680_a_at) / Fold change /veh TMPRSS4 (11748680_a_at) / RFU FAM212B (11763350_a_at) / Fold change /veh FAM212B (11763350_a_at) / RFU PLEKHG5 (11743358_a_at) / Fold change /veh PLEKHG5 (11743358_a_at) / RFU ZSCAN30 (11745921_a_at) / Fold change /veh ZSCAN30 (11745921_a_at) / RFU CMKLR1 (11741424_a_at) / Fold change /veh CMKLR1 (11741424_a_at) / RFU LOC101060620 /// MAPK8IP1 (11723275_at) / Fold change /veh LOC101060620 /// MAPK8IP1 (11723275_at) / RFU SPTSSB (11747773_x_at) / Fold change /veh SPTSSB (11747773_x_at) / RFU PRSS12 (11739890_at) / Fold change /veh PRSS12 (11739890_at) / RFU BIN1 (11741810_x_at) / Fold change /veh BIN1 (11741810_x_at) / RFU WNT11 (11732464_a_at) / Fold change /veh WNT11 (11732464_a_at) / RFU C10orf10 (11716521_a_at) / Fold change /veh C10orf10 (11716521_a_at) / RFU C5orf56 (11738089_at) / Fold change /veh C5orf56 (11738089_at) / RFU CYB561 (11721691_x_at) / Fold change /veh CYB561 (11721691_x_at) / RFU ANKRD19P (11752326_a_at) / Fold change /veh ANKRD19P (11752326_a_at) / RFU OR2T12 /// OR2T33 /// OR2T8 (11738714_s_at) / Fold change /veh OR2T12 /// OR2T33 /// OR2T8 (11738714_s_at) / RFU VCAN (11748164_a_at) / Fold change /veh VCAN (11748164_a_at) / RFU JSRP1 (11732532_at) / Fold change /veh JSRP1 (11732532_at) / RFU KRTAP10-11 (11738290_x_at) / Fold change /veh KRTAP10-11 (11738290_x_at) / RFU MYO3A (11730013_a_at) / Fold change /veh MYO3A (11730013_a_at) / RFU EBF3 (11725865_a_at) / Fold change /veh EBF3 (11725865_a_at) / RFU CAMK2N1 (11719241_x_at) / Fold change /veh CAMK2N1 (11719241_x_at) / RFU C5orf56 (11738088_a_at) / Fold change /veh C5orf56 (11738088_a_at) / RFU OLFML3 (11715873_a_at) / Fold change /veh OLFML3 (11715873_a_at) / RFU LOC100653217 /// NTM (11731650_a_at) / Fold change /veh LOC100653217 /// NTM (11731650_a_at) / RFU MAPK11 (11762145_a_at) / Fold change /veh MAPK11 (11762145_a_at) / RFU FIZ1 (11724087_x_at) / Fold change /veh FIZ1 (11724087_x_at) / RFU OASL (11726364_x_at) / Fold change /veh OASL (11726364_x_at) / RFU SOX15 (11748057_x_at) / Fold change /veh SOX15 (11748057_x_at) / RFU CD79A (11719716_a_at) / Fold change /veh CD79A (11719716_a_at) / RFU HIST1H1D (11736915_at) / Fold change /veh HIST1H1D (11736915_at) / RFU CASKIN2 (11723855_a_at) / Fold change /veh CASKIN2 (11723855_a_at) / RFU LOC730098 (11760151_x_at) / Fold change /veh LOC730098 (11760151_x_at) / RFU OR4N2 (11742367_at) / Fold change /veh OR4N2 (11742367_at) / RFU PRRT2 (11749266_a_at) / Fold change /veh PRRT2 (11749266_a_at) / RFU SNX32 (11753110_a_at) / Fold change /veh SNX32 (11753110_a_at) / RFU CDHR5 (11726645_a_at) / Fold change /veh CDHR5 (11726645_a_at) / RFU RCAN1 (11760418_a_at) / Fold change /veh RCAN1 (11760418_a_at) / RFU FAM167A (11723789_a_at) / Fold change /veh FAM167A (11723789_a_at) / RFU FAM26E (11764081_at) / Fold change /veh FAM26E (11764081_at) / RFU ISYNA1 (11749810_s_at) / Fold change /veh ISYNA1 (11749810_s_at) / RFU ACY1 (11761880_at) / Fold change /veh ACY1 (11761880_at) / RFU 11764098_at / Fold change /veh 11764098_at / RFU SAMD14 (11745864_x_at) / Fold change /veh SAMD14 (11745864_x_at) / RFU NPB (11741838_a_at) / Fold change /veh NPB (11741838_a_at) / RFU TMPRSS6 (11731388_a_at) / Fold change /veh TMPRSS6 (11731388_a_at) / RFU KRTAP10-2 (11738614_at) / Fold change /veh KRTAP10-2 (11738614_at) / RFU ARHGAP8 /// PRR5-ARHGAP8 (11727945_x_at) / Fold change /veh ARHGAP8 /// PRR5-ARHGAP8 (11727945_x_at) / RFU KRTAP5-7 /// NADSYN1 (11734609_at) / Fold change /veh KRTAP5-7 /// NADSYN1 (11734609_at) / RFU RASL12 (11751679_a_at) / Fold change /veh RASL12 (11751679_a_at) / RFU CDKN2B (11736163_a_at) / Fold change /veh CDKN2B (11736163_a_at) / RFU PRF1 (11729649_at) / Fold change /veh PRF1 (11729649_at) / RFU, ZNF638 /// ZNF638-IT1 / Fold change vs veh, ZNF638 /// ZNF638-IT1 / RFU, PANK3 / Fold change vs veh, PANK3 / RFU, SH3YL1 / Fold change vs veh, SH3YL1 / RFU, ZEB2 / Fold change vs veh, ZEB2 / RFU, NRIP1 / Fold change vs veh, NRIP1 / RFU, PTTG1IP / Fold change vs veh, PTTG1IP / RFU, CAPN2 / Fold change vs veh, CAPN2 / RFU, MED14 / Fold change vs veh, MED14 / RFU, SNORA58 / Fold change vs veh, SNORA58 / RFU, C1orf63 / Fold change vs veh, C1orf63 / RFU, LRRFIP1 / Fold change vs veh, LRRFIP1 / RFU, NDUFAF7 / Fold change vs veh, NDUFAF7 / RFU, SLC12A2 / Fold change vs veh, SLC12A2 / RFU, IBTK / Fold change vs veh, IBTK / RFU, ESF1 / Fold change vs veh, ESF1 / Fold change vs veh, TMEM50B / RFU, TAOK1 / Fold change vs veh, TAOK1 / RFU, ACBD3 / Fold change vs veh, ACBD3 / RFU, TMA16 / Fold change vs veh, TMA16 / RFU, RWDD3 / Fold change vs veh, RWDD3 / RFU, BCAT1 / Fold change vs veh, BCAT1 / RFU, EDEM3 / Fold change vs veh, EDEM3 / RFU, TMEM33 / Fold change vs veh, TMEM33 / RFU, WDR75 / Fold change vs veh, WDR75 / RFU, AHCTF1 / Fold change vs veh, AHCTF1 / RFU, TFRC / Fold change vs veh, TFRC / RFU, ZDHHC17 / Fold change vs veh, ZDHHC17 / RFU, NOM1 / Fold change vs veh, NOM1 / RFU, ARL8B / Fold change vs veh, ARL8B / RFU, ZBTB11 / Fold change vs veh, ZBTB11 / RFU, TAMM41 / Fold change vs veh, TAMM41 / RFU, KIAA1704 /// LOC100996395 / Fold change vs veh, KIAA1704 /// LOC100996395 / RFU, ING1 / Fold change vs veh, ING1 / RFU, TRMT61B / Fold change vs veh, TRMT61B / RFU, FUBP3 / Fold change vs veh, FUBP3 / RFU, TP53 / Fold change vs veh, TP53 / RFU, TNKS2 / Fold change vs veh, TNKS2 / RFU, ZFP14 / Fold change vs veh, ZFP14 / RFU, ACTR2 / Fold change vs veh, ACTR2 / RFU, PPP3R1 / Fold change vs veh, PPP3R1 / RFU, PIK3R1 / Fold change vs veh, PIK3R1 / RFU, HNRNPA1 / Fold change vs veh, HNRNPA1 / RFU, RNF170 / Fold change vs veh, RNF170 / RFU, ZNF28 / Fold change vs veh, ZNF28 / RFU, RNGTT / Fold change vs veh, RNGTT / RFU, OGT / Fold change vs veh, OGT / RFU, BRD1 / Fold change vs veh, BRD1 / RFU, MARS / Fold change vs veh, MARS / RFU, ZNF655 / Fold change vs veh, ZNF655 / RFU, FAHD1 / Fold change vs veh, FAHD1 / RFU, BDP1 / Fold change vs veh, BDP1 / RFU, LRRCC1 / Fold change vs veh, LRRCC1 / RFU, ARID1A / Fold change vs veh, ARID1A / RFU, ZNF146 / Fold change vs veh, ZNF146 / RFU, ZNF330 / Fold change vs veh, ZNF330 / RFU, GPN3 / Fold change vs veh, GPN3 / RFU, C9orf123 / Fold change vs veh, C9orf123 / RFU, N4BP2L2 / Fold change vs veh, N4BP2L2 / RFU, ARFIP1 / Fold change vs veh, ARFIP1 / RFU, FAM179B / Fold change vs veh, FAM179B / RFU, BCL10 / Fold change vs veh, BCL10 / RFU, UHRF1BP1L / Fold change vs veh, UHRF1BP1L / RFU, BET1 / Fold change vs veh, BET1 / RFU, CNOT2 / Fold change vs veh, CNOT2 / RFU, ZNF268 / Fold change vs veh, ZNF268 / Fold change vs veh, ZNF507 / RFU, DGCR2 / Fold change vs veh, DGCR2 / RFU, WDSUB1 / Fold change vs veh, WDSUB1 / Fold change vs veh, HSP90B1 /// MIR3652 / RFU, ADSS / Fold change vs veh, ADSS / RFU, GK / Fold change vs veh, GK / RFU, ZNF148 / Fold change vs veh, ZNF148 / RFU, TAF9 / Fold change vs veh, TAF9 / RFU, SLC1A5 / Fold change vs veh, SLC1A5 / RFU, SLMO2 / Fold change vs veh, SLMO2 / RFU, ABCC4 / Fold change vs veh, ABCC4 / RFU, LOC101060439 /// RAP1B / Fold change vs veh, LOC101060439 /// RAP1B / RFU, RFX7 / Fold change vs veh, RFX7 / RFU, GTPBP10 / Fold change vs veh, GTPBP10 / RFU, CNEP1R1 / Fold change vs veh, CNEP1R1 / RFU, BIVM-ERCC5 /// ERCC5 / Fold change vs veh, BIVM-ERCC5 /// ERCC5 / RFU, ILF3 / Fold change vs veh, ILF3 / RFU 11762660_at / Fold change /veh 11762660_at / RFU VCAN (11757783_s_at) / Fold change /veh VCAN (11757783_s_at) / RFU DDX43 (11728927_at) / Fold change /veh DDX43 (11728927_at) / RFU KRT8 (11758188_x_at) / Fold change /veh KRT8 (11758188_x_at) / RFU NKD1 (11759106_at) / Fold change /veh NKD1 (11759106_at) / RFU SRD5A1 (11742802_a_at) / Fold change /veh SRD5A1 (11742802_a_at) / RFU TPSAB1 /// TPSB2 (11721975_s_at) / Fold change /veh TPSAB1 /// TPSB2 (11721975_s_at) / RFU GSTM3 (11746129_a_at) / Fold change /veh GSTM3 (11746129_a_at) / RFU IL23R (11737362_x_at) / Fold change /veh IL23R (11737362_x_at) / RFU TMEM51 (11727254_a_at) / Fold change /veh TMEM51 (11727254_a_at) / RFU PIWIL2 (11732686_x_at) / Fold change /veh PIWIL2 (11732686_x_at) / RFU ORM1 (11744905_x_at) / Fold change /veh ORM1 (11744905_x_at) / RFU CCDC152 (11743942_at) / Fold change /veh CCDC152 (11743942_at) / RFU ECM1 (11717891_a_at) / Fold change /veh ECM1 (11717891_a_at) / RFU IL23R (11748794_a_at) / Fold change /veh IL23R (11748794_a_at) / RFU TNFAIP8L3 (11732012_x_at) / Fold change /veh TNFAIP8L3 (11732012_x_at) / RFU MBOAT4 (11741988_at) / Fold change /veh MBOAT4 (11741988_at) / RFU 11764193_at / Fold change /veh 11764193_at / RFU TMEM53 (11763286_at) / Fold change /veh TMEM53 (11763286_at) / RFU MAGEB2 (11727129_at) / Fold change /veh MAGEB2 (11727129_at) / RFU TMEM200A (11744735_a_at) / Fold change /veh TMEM200A (11744735_a_at) / RFU CCDC152 (11751479_a_at) / Fold change /veh CCDC152 (11751479_a_at) / RFU FAM211A (11726209_a_at) / Fold change /veh FAM211A (11726209_a_at) / RFU RGS16 (11746705_a_at) / Fold change /veh RGS16 (11746705_a_at) / RFU VCAN (11755009_s_at) / Fold change /veh VCAN (11755009_s_at) / RFU RHOB (11743442_s_at) / Fold change /veh RHOB (11743442_s_at) / RFU RGS16 (11720943_a_at) / Fold change /veh RGS16 (11720943_a_at) / RFU RGS16 (11720944_at) / Fold change /veh RGS16 (11720944_at) / RFU, VPS4B / Fold change vs veh, VPS4B / RFU, CREB1 / Fold change vs veh, CREB1 / RFU, DNAJC13 / Fold change vs veh, DNAJC13 / RFU, GNAQ / Fold change vs veh, GNAQ / RFU, CDK5R1 / Fold change vs veh, CDK5R1 / RFU, ZRANB3 / Fold change vs veh, ZRANB3 / RFU, CUL4A / Fold change vs veh, CUL4A / RFU, CCNY / Fold change vs veh, CCNY / RFU, UFL1 / Fold change vs veh, UFL1 / RFU, COG3 / Fold change vs veh, COG3 / RFU, DIAPH2 / Fold change vs veh, DIAPH2 / RFU, SKA2 / Fold change vs veh, SKA2 / RFU, AFF3 / Fold change vs veh, AFF3 / RFU, LMF1 / Fold change vs veh, LMF1 / RFU, IPO11 / Fold change vs veh, IPO11 / RFU, DFFB / Fold change vs veh, DFFB / RFU, FOXP1 / Fold change vs veh, FOXP1 / RFU, CARD8 / Fold change vs veh, CARD8 / RFU, STRN3 / Fold change vs veh, STRN3 / RFU, ADK / Fold change vs veh, ADK / RFU, RASSF2 / Fold change vs veh, RASSF2 / RFU, WIPF1 / Fold change vs veh, WIPF1 / RFU, LARP1B / Fold change vs veh, LARP1B / RFU, RASA1 / Fold change vs veh, RASA1 / RFU, RB1 / Fold change vs veh, RB1 / RFU, PPFIA1 / Fold change vs veh, PPFIA1 / RFU, MAT2A / Fold change vs veh, MAT2A / RFU, CCT5 / Fold change vs veh, CCT5 / RFU, WDR92 / Fold change vs veh, WDR92 / RFU, CUX1 / Fold change vs veh, CUX1 / RFU, TTC7A / Fold change vs veh, TTC7A / RFU, TMEM135 / Fold change vs veh, TMEM135 / RFU, DEPTOR / Fold change vs veh, DEPTOR / RFU, CPM / Fold change vs veh, CPM / RFU, DNAJB6 / Fold change vs veh, DNAJB6 / RFU, CACNA2D3 / Fold change vs veh, CACNA2D3 / RFU, DTX4 / Fold change vs veh, DTX4 / RFU, TFCP2 / Fold change vs veh, TFCP2 / RFU, GMCL1 /// GMCL1P1 / Fold change vs veh, GMCL1 /// GMCL1P1 / RFU, AEBP2 / Fold change vs veh, AEBP2 / RFU, SNHG1 /// SNORD22 /// SNORD25 /// SNORD26 /// SNORD27 /// SNORD28 /// SNORD29 /// SNORD31 / Fold change vs veh, SNHG1 /// SNORD22 /// SNORD25 /// SNORD26 /// SNORD27 /// SNORD28 /// SNORD29 /// SNORD31 / Fold change (Aza/veh), C12orf56 (ProbeSet 11735607_a_at) / Fold change (ACY-1035/veh), C12orf56 (ProbeSet 11735607_a_at) / Fold change (Aza/veh), FGFR1OP (ProbeSet 11751329_s_at) / Fold change (ACY-1035/veh), FGFR1OP (ProbeSet 11751329_s_at) / Fold change (Aza/veh), VPS36 (ProbeSet 11739960_a_at) / Fold change (ACY-1035/veh), VPS36 (ProbeSet 11739960_a_at) / RFU SYPL1 (11715823_x_at) / Fold change /veh SYPL1 (11715823_x_at) / RFU IGFBP7 (11715501_s_at) / Fold change /veh IGFBP7 (11715501_s_at) / RFU REEP3 (11722064_at) / Fold change /veh REEP3 (11722064_at) / RFU IGLL1 (11728026_x_at) / Fold change /veh IGLL1 (11728026_x_at): dose or concentration left out as unconfirmed. To be noted: ProbeSet 11718569_a_at; LIST D.

Consider `Nc1ccc(-c2cccs2)cc1NC(=O)c1ccc2c(c1)cc(C1CC1)n2CCN1CCOCC1` [ACY-1035], for which the “Fold change vs veh, WIPF1” value stood at 0.95.

The record behind these values is publication PMC5218480 (PLoS ONE, 2017).
